Test results reported in patent US20260158017A1, “KIF18A INHIBITOR” (WIGEN BIOMEDICINE TECHNOLOGY (SHANGHAI) CO., LTD., priority 2021, published 2026).

Biological target: T1, Recombinant human KIF18A (1-467His-tagged) protein (Homo sapiens, UniProt Q8NI77)
T1 construct: Recombinant human KIF18A (1-467His-tagged) protein; His; made in house
Test: KIF18A enzyme assay (microtubule-stimulated ATPase activity, ADP-Glo)
Assay type: biochemical
Conditions: 30 nM KIF18A, 75 μM ATP, 30 μg/mL pig microtubules; read-out: Inhibitory activity against KIF18A IC50
In short: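 Buffer 15 mM Tris pH 7.5, 10 mM MgCl2, 0.01% Pluronic F-68, 1 μM paclitaxel, 30 μg/mL pig microtubules; reactions at room temperature. IC50 from inhibition relative to DMSO.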

T1 sequence (Q8NI77 1-467): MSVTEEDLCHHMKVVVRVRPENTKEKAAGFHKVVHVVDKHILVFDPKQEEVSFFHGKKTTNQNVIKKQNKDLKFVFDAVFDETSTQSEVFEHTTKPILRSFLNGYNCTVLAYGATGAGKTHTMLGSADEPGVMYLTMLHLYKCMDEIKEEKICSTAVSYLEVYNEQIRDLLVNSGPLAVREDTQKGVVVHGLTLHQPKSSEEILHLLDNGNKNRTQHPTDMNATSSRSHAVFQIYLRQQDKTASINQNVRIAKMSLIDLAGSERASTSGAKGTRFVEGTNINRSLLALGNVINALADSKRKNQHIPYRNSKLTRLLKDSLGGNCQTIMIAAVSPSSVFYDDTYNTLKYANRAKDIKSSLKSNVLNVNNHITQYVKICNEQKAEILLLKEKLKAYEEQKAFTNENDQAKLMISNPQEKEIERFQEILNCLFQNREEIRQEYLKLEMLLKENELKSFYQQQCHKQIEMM
T1 sequence (P02550 whole entry partner): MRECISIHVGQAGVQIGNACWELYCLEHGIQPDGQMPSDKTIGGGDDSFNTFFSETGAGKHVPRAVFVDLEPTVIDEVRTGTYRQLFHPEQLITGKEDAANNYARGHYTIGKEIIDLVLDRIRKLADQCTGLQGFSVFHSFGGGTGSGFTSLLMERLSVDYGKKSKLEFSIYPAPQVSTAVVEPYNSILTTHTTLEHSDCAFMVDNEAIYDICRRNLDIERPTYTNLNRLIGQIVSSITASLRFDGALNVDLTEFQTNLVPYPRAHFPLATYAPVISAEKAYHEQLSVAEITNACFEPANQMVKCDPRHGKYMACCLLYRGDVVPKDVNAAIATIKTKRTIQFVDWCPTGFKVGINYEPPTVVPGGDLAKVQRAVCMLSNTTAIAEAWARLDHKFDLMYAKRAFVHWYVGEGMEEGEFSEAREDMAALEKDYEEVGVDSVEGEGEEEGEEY
T1 sequence (P02554 whole entry partner): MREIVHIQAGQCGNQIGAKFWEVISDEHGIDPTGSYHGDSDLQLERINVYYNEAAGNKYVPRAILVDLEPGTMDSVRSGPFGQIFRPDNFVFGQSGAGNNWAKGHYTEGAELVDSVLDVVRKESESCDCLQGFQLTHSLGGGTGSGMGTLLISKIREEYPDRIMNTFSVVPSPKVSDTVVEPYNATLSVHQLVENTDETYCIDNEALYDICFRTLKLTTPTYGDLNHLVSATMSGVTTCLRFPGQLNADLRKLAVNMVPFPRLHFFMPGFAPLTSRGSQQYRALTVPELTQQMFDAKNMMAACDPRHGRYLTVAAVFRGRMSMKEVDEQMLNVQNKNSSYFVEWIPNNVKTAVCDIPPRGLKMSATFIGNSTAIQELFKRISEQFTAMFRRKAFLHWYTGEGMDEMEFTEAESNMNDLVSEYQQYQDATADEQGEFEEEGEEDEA

Structure (SMILES)	IC50 [µM]
COc1ccc(C(=O)Nc2cnc(NS(=O)(=O)CCO)cc2N2CCC3(CC2)CC3)nc1NC(C)(C)CO [Compound 363]	≤ 0.1
COc1ccc(C(=O)Nc2cnc(NS(=O)(=O)[C@@H](C)CO)cc2N2CCC3(CC2)CC3)nc1N1CCC(F)(F)CC1 [Compound 365]	≤ 0.1
COc1ccc(C(=O)Nc2cnc(NS(=O)(=O)[C@@H](C)CO)cc2N2CCC3(CC2)CC3)nc1N1CCO[C@H](C)C1 [Compound 367]	≤ 0.1
COc1ccc(C(=O)Nc2cnc(S(=O)(=O)NCCO)cc2N2CCC3(CC2)CC3)nc1N1CCC(F)(F)CC1 [Compound 369]	≤ 0.1
COc1ccc(C(=O)Nc2cnc(S(=O)(=O)NCCO)cc2N2CCC3(CC2)CC3)nc1N1CCO[C@H](C)C1 [Compound 370]	≤ 0.1
COc1ccc(C(=O)Nc2cnc(S(=O)(=O)NCCO)cc2N2CCC3(CC2)CC3)nc1N1CCO[C@@H](C)C1 [Compound 371]	≤ 0.1
COc1ccc(C(=O)Nc2cnc(S(=O)(=O)NCCO)cc2N2CCC3(CC2)CC3)nc1OCCC(F)(F)F [Compound 373]	≤ 0.1
COc1ccc(C(=O)Nc2cnc(S(=O)(=O)NCCO)cc2N2CCC3(CC2)CC3)nc1N1CCC2(CC2)C1 [Compound 374]	≤ 0.1
COc1ccc(C(=O)Nc2cnc(S(=O)(=O)NCCO)cc2N2CCC3(CC2)CC3)nc1N1CCC(F)CC1 [Compound 377]	≤ 0.1
COc1ccc(C(=O)Nc2cnc(S(=O)(=O)N[C@H](C)CO)cc2N2CCC3(CC2)CC3)nc1N1CCC(F)(F)CC1 [Compound 382]	≤ 0.1
COc1ccc(C(=O)Nc2cnc(S(=O)(=O)N[C@@H](C)CO)cc2N2CCC3(CC2)CC3)nc1N1CCO[C@H](C)C1 [Compound 383]	≤ 0.1
COc1ccc(C(=O)Nc2cnc(NS(=O)(=O)[C@H](C)CO)cc2N2CCC3(CC2)CC3)nc1N1CCO[C@H](C)C1 [Compound 384]	≤ 0.1
C[C@H]1CN(c2cc(NC(=O)c3ccc(NS(=O)(=O)CCO)cc3N3CCC4(CC3)CC4)ccc2OCF)CCO1 [Compound 387]	≤ 0.1
O=C(Nc1ccc(OCF)c(N2CCC3(CC3)C2)c1)c1ccc(NS(=O)(=O)CCO)cc1N1CCC2(CC1)CC2 [Compound 390]	≤ 0.1
O=C(Nc1ccc(OCF)c(OC2CCC2)c1)c1ccc(NS(=O)(=O)CCO)cc1N1CCC2(CC1)CC2 [Compound 391]	≤ 0.1
O=C(Nc1ccc(OCF)c(N2CCC(F)CC2)c1)c1ccc(NS(=O)(=O)CCO)cc1N1CCC2(CC1)CC2 [Compound 393]	≤ 0.1
C[C@H](CO)S(=O)(=O)Nc1ccc(C(=O)Nc2ccc(OCF)c(N3CCC(F)(F)CC3)c2)c(N2CCC3(CC2)CC3)c1 [Compound 398]	≤ 0.1
C[C@@H]1CN(c2cc(NC(=O)c3ccc(NS(=O)(=O)[C@@H](C)CO)cc3N3CCC4(CC3)CC4)ccc2OCF)CCO1 [Compound 399]	≤ 0.1

Structure (SMILES)	IC50 [µM]
O=C(Nc1ccc(OCF)c(N2CCC(F)(F)CC2)c1)c1ccc(S(=O)(=O)NCCO)cc1N1CCC2(CC1)CC2 [Compound 401]	≤ 0.1
C[C@@H]1CN(c2cc(NC(=O)c3cnc(S(=O)(=O)NCCO)cc3N3CCC4(CC3)CC4)ccc2OCF)CCO1 [Compound 402]	≤ 0.1
O=C(Nc1ccc(OCF)c(N2CC(F)(F)C2)c1)c1ccc(S(=O)(=O)NCCO)cc1N1CCC2(CC1)CC2 [Compound 404]	≤ 0.1
O=C(Nc1ccc(OCF)c(OCCC(F)(F)F)c1)c1ccc(S(=O)(=O)NCCO)cc1N1CCC2(CC1)CC2 [Compound 405]	≤ 0.1
O=C(Nc1ccc(OCF)c(OC2CCC2)c1)c1ccc(S(=O)(=O)NCCO)cc1N1CCC2(CC1)CC2 [Compound 407]	≤ 0.1
O=C(Nc1ccc(OCF)c(N2CCC(F)CC2)c1)c1ccc(S(=O)(=O)NCCO)cc1N1CCC2(CC1)CC2 [Compound 409]	≤ 0.1
CC(C)(CO)Nc1cc(NC(=O)c2ccc(S(=O)(=O)NCCO)cc2N2CCC3(CC2)CC3)ccc1OCF [Compound 411]	≤ 0.1
O=C(Nc1ccc(OCF)c(N2CCOCC2)c1)c1ccc(S(=O)(=O)NCCO)cc1N1CCC2(CC1)CC2 [Compound 412]	≤ 0.1
C[C@H](CO)NS(=O)(=O)c1ccc(C(=O)Nc2ccc(OCF)c(N3CCC(F)(F)CC3)c2)c(N2CCC3(CC2)CC3)c1 [Compound 414]	≤ 0.1
C[C@@H]1CN(c2cc(NC(=O)c3ccc(S(=O)(=O)N[C@@H](C)CO)cc3N3CCC4(CC3)CC4)ccc2OCF)CCO1 [Compound 415]	≤ 0.1
O=C(Nc1ccc(OCF)c(N2CCC(F)(F)CC2)n1)c1ccc(NS(=O)(=O)CCO)cc1N1CCC2(CC1)CC2 [Compound 417]	≤ 0.1
C[C@H]1CN(c2nc(NC(=O)c3ccc(NS(=O)(=O)CCO)cc3N3CCC4(CC3)CC4)ccc2OCF)CCO1 [Compound 419]	≤ 0.1
O=C(Nc1ccc(OCF)c(OCCC(F)(F)F)n1)c1ccc(NS(=O)(=O)CCO)cc1N1CCC2(CC1)CC2 [Compound 421]	≤ 0.1
O=C(Nc1ccc(OCF)c(N2CCC3(CC3)C2)n1)c1ccc(NS(=O)(=O)CCO)cc1N1CCC2(CC1)CC2 [Compound 422]	≤ 0.1
O=C(Nc1ccc(OCF)c(OC2CCC2)n1)c1ccc(NS(=O)(=O)CCO)cc1N1CCC2(CC1)CC2 [Compound 423]	≤ 0.1
CC1(F)CCN(c2nc(NC(=O)c3ccc(NS(=O)(=O)CCO)cc3N3CCC4(CC3)CC4)ccc2OCF)C1 (centres unmarked) [Compound 424]	≤ 0.1
CC(C)(CO)Nc1nc(NC(=O)c2ccc(NS(=O)(=O)CCO)cc2N2CCC3(CC2)CC3)ccc1OCF [Compound 427]	≤ 0.1

More lines, now with the values ahead:

IC50 [µM]	Structure (SMILES)
≤ 0.1	COc1ccc(C(=O)Nc2cnc(NS(=O)(=O)CCO)cc2N2CCC3(CC2)CC3)nc1N1CCC(C)(F)C1 (centres unmarked) [Compound 360]
≤ 0.1	COc1ccc(C(=O)Nc2cnc(NS(=O)(=O)CCO)cc2N2CCC3(CC2)CC3)nc1N1CCC(F)CC1 [Compound 361]
≤ 0.1	COc1ccc(C(=O)Nc2cnc(NS(=O)(=O)CCO)cc2N2CCC3(CC2)CC3)nc1N1CC2CC2C1 (centres unmarked) [Compound 362]
≤ 0.1	COc1ccc(C(=O)Nc2cnc(NS(=O)(=O)CCO)cc2N2CCC3(CC2)CC3)nc1N1CCOCC1 [Compound 364]
≤ 0.1	COc1ccc(C(=O)Nc2cnc(NS(=O)(=O)[C@H](C)CO)cc2N2CCC3(CC2)CC3)nc1N1CCC(F)(F)CC1 [Compound 366]
≤ 0.1	COc1ccc(C(=O)Nc2cnc(NS(=O)(=O)[C@H](C)CO)cc2N2CCC3(CC2)CC3)nc1N1CCO[C@H](C)C1 [Compound 368]
≤ 0.1	COc1ccc(C(=O)Nc2cnc(S(=O)(=O)NCCO)cc2N2CCC3(CC2)CC3)nc1N1CC(F)(F)C1 [Compound 372]
≤ 0.1	COc1ccc(C(=O)Nc2cnc(S(=O)(=O)NCCO)cc2N2CCC3(CC2)CC3)nc1OC1CCC1 [Compound 375]
≤ 0.1	COc1ccc(C(=O)Nc2cnc(S(=O)(=O)NCCO)cc2N2CCC3(CC2)CC3)nc1N1CCC(C)(F)C1 (centres unmarked) [Compound 376]
≤ 0.1	COc1ccc(C(=O)Nc2cnc(S(=O)(=O)NCCO)cc2N2CCC3(CC2)CC3)nc1N1CC2CC2C1 (centres unmarked) [Compound 378]
≤ 0.1	COc1ccc(C(=O)Nc2cnc(S(=O)(=O)NCCO)cc2N2CCC3(CC2)CC3)nc1NC(C)(C)CO [Compound 379]
≤ 0.1	COc1ccc(C(=O)Nc2cnc(S(=O)(=O)NCCO)cc2N2CCC3(CC2)CC3)nc1N1CCOCC1 [Compound 380]
≤ 0.1	COc1ccc(C(=O)Nc2cnc(S(=O)(=O)N[C@@H](C)CO)cc2N2CCC3(CC2)CC3)nc1N1CCC(F)(F)CC1 [Compound 381]
≤ 0.1	C[C@@H]1CN(c2cc(NC(=O)c3ccc(NS(=O)(=O)CCO)cc3N3CCC4(CC3)CC4)ccc2OCF)CCO1 [Compound 386]
≤ 0.1	O=C(Nc1ccc(OCF)c(N2CC(F)(F)C2)c1)c1ccc(NS(=O)(=O)CCO)cc1N1CCC2(CC1)CC2 [Compound 388]
≤ 0.1	O=C(Nc1ccc(OCF)c(OCCC(F)(F)F)c1)c1ccc(NS(=O)(=O)CCO)cc1N1CCC2(CC1)CC2 [Compound 389]
≤ 0.1	CC1(F)CCN(c2cc(NC(=O)c3ccc(NS(=O)(=O)CCO)cc3N3CCC4(CC3)CC4)ccc2OCF)C1 (centres unmarked) [Compound 392]
≤ 0.1	CC(C)(CO)Nc1cc(NC(=O)c2ccc(NS(=O)(=O)CCO)cc2N2CCC3(CC2)CC3)ccc1OCF [Compound 395]
≤ 0.1	O=C(Nc1ccc(OCF)c(N2CCOCC2)c1)c1ccc(NS(=O)(=O)CCO)cc1N1CCC2(CC1)CC2 [Compound 396]
≤ 0.1	C[C@@H](CO)S(=O)(=O)Nc1ccc(C(=O)Nc2ccc(OCF)c(N3CCC(F)(F)CC3)c2)c(N2CCC3(CC2)CC3)c1 [Compound 397]
≤ 0.1	C[C@H]1CN(c2cc(C(=O)Nc3ccc(S(=O)(=O)NCCO)cc3N3CCC4(CC3)CC4)ccc2OCF)CCO1 [Compound 403]
≤ 0.1	O=C(Nc1ccc(OCF)c(N2CCC3(CC3)C2)c1)c1ccc(S(=O)(=O)NCCO)cc1N1CCC2(CC1)CC2 [Compound 406]
≤ 0.1	CC1(F)CCN(c2cc(NC(=O)c3ccc(S(=O)(=O)NCCO)cc3N3CCC4(CC3)CC4)ccc2OCF)C1 (centres unmarked) [Compound 408]
≤ 0.1	O=C(Nc1ccc(OCF)c(N2CC3CC3C2)c1)c1ccc(S(=O)(=O)NCCO)cc1N1CCC2(CC1)CC2 (centres unmarked) [Compound 410]
≤ 0.1	C[C@@H](CO)S(=O)(=O)Nc1ccc(C(=O)Nc2ccc(OCF)c(N3CCC(F)(F)CC3)c2)c(N2CCC3(CC2)CC3)c1 [Compound 413]
≤ 0.1	C[C@H](CO)NS(=O)(=O)c1ccc(C(=O)Nc2ccc(OCF)c(N3CCO[C@H](C)C3)c2)c(N2CCC3(CC2)CC3)c1 [Compound 416]
≤ 0.1	C[C@@H]1CN(c2nc(NC(=O)c3ccc(NS(=O)(=O)CCO)cc3N3CCC4(CC3)CC4)ccc2OCF)CCO1 [Compound 418]
≤ 0.1	O=C(Nc1ccc(OCF)c(N2CC(F)(F)C2)n1)c1ccc(NS(=O)(=O)CCO)cc1N1CCC2(CC1)CC2 [Compound 420]
≤ 0.1	O=C(Nc1ccc(OCF)c(N2CCC(F)CC2)n1)c1ccc(NS(=O)(=O)CCO)cc1N1CCC2(CC1)CC2 [Compound 425]
≤ 0.1	O=C(Nc1ccc(OCF)c(N2CC3CC3C2)n1)c1ccc(NS(=O)(=O)CCO)cc1N1CCC2(CC1)CC2 (centres unmarked) [Compound 426]
